Common to all, as to format: in vivo, mouse
Experiment [1] has as its system C57Bl/6 mice with unilateral ureter obstruction (UUO). Put plainly: Sirius Red staining of kidney sections, UUO model of renal fibrosis. As to conditions: 3 mg/kg subcutaneously the day before and daily for 14 days after UUO. The method, then: The effect of ND-13 on renal disease was then assessed. Unilateral ureter obstruction (UUO) was chosen as a model of renal disease to determine if ND-13 has a protective effect. The UUO model is an known model of human and animal kidney disease, which mimics the effects of chronic kidney disease and diabetes (i.e., diabetic nephropathy), due to its capability of generating a progressive renal (tubule interstitial) fibrosis and has advantages of good reproducibility, a short time course and the presence of a contralateral kidney as control.
C57Bl/6 control mice as well as DJ-1 knockout mice were subjected to UUO in order to examine mechanisms involved in renal tubule interstitial fibrosis in vivo and to determine if ND-13 has a protective effect against renal disease. DJ-1 knockout mice used herein were from the original F2 hybrid strain (129/SvXC57BL/6J) that contained the mutated DJ-1 allele (DJ-1−/−) backcrossed to wild-type C57BL/6J for >20 generations and genotyped. […]
Renal interstitial fibrosis was assessed in the mice by Sirius Red staining. […] Sirius Red staining was examined with an Olympus BX-41 microscope and the amount of collagen in the kidney was quantified by ImageJ software. Two images of about 70% of the renal cortical sections were used in the quantification. […]

Experiment [2] shares this test system. Put plainly: Urinary NGAL ELISA after UUO. The note with it: urine 14 days after UUO, 3 mg/kg subcutaneously daily. From the text: (§1) C57Bl/6 control mice as well as DJ-1 knockout mice were subjected to UUO in order to examine mechanisms involved in renal tubule interstitial fibrosis in vivo and to determine if ND-13 has a protective effect against renal disease. DJ-1 knockout mice used herein were from the original F2 hybrid strain (129/SvXC57BL/6J) that contained the mutated DJ-1 allele (DJ-1−/−) backcrossed to wild-type C57BL/6J for >20 generations and genotyped. Prior to UUO, ND-13 peptide and scrambled control peptide (3 mg/kg diluted in […] of saline) were injected subcutaneously to C57Bl/6 and DJ-1 knockout mice the day before performing the complete UUO. For UUO surgery, the procedure was performed as follows. Briefly, mice were anesthetized with isofluorane (3-5% for induction and 1-3% for maintenance) and divided into two experimental groups: the UUO group and the sham operation group. In the UUO group, mice were shaved on the left side of the abdomen, a vertical incision was made through the skin with a scalpel and the skin was retracted. A second incision was made through the peritoneum to expose the kidney. The left ureter was ligated twice 15 mm below the renal pelvis with surgical silk and the ureter was then severed between the two ligatures. Then, the ligated kidney was placed gently back into its correct anatomical position and sterile saline was added to replenish loss of fluid. […]
Background: In an ELISA, binding on a coated surface is turned into a signal by an enzyme label.

Experiment [3] relates to DJ-1 knockout mice with unilateral ureter obstruction (UUO). Put plainly: Urinary NGAL ELISA after UUO. As to conditions: urine 14 days after UUO, 3 mg/kg subcutaneously daily.
Excerpt: as §1

Experiment [4] concerns TNF-alpha, IL-6, Col1a1 and TGF-beta mRNA in kidneys of C57Bl/6 mice with UUO. Put plainly: qRT-PCR of renal inflammatory and fibrotic marker mRNA after UUO. The note with it: 14 days after UUO, normalized by GAPDH. The text has this:
(§2) C57Bl/6 control mice as well as DJ-1 knockout mice were subjected to UUO in order to examine mechanisms involved in renal tubule interstitial fibrosis in vivo and to determine if ND-13 has a protective effect against renal disease. DJ-1 knockout mice used herein were from the original F2 hybrid strain (129/SvXC57BL/6J) that contained the mutated DJ-1 allele (DJ-1−/−) backcrossed to wild-type C57BL/6J for >20 generations and genotyped. Prior to UUO, ND-13 peptide and scrambled control peptide (3 mg/kg diluted in […] of saline) were injected subcutaneously to C57Bl/6 and DJ-1 knockout mice the day before performing the complete UUO. For UUO surgery, the procedure was performed as follows. Briefly, mice were anesthetized with isofluorane (3-5% for induction and 1-3% for maintenance) and divided into two experimental groups: the UUO group and the sham operation group. In the UUO group, mice were shaved on the left side of the abdomen, a vertical incision was made through the skin with a scalpel and the skin was retracted. A second incision was made through the peritoneum to expose the kidney. The left ureter was ligated twice 15 mm below the renal pelvis with surgical silk and the ureter was then severed between the two ligatures. Then, the ligated kidney was placed gently back into its correct anatomical position and sterile saline was added to replenish loss of fluid. The incisions were sutured and mice were individually caged. Buprenorphine was used as an analgesic. 24 hours after UUO surgery, the ND-13 peptide and scrambled control peptide (3 mg/kg diluted in […] of saline) were injected subcutaneously to C57Bl/6 and DJ-1 knockout mice and then injected every day thereafter for 14 days following UUO. Untreated normal C57Bl/6 mice served as a control. After 14 days, urine was collected and the mice were sacrificed. Tissues, including the kidneys, were obtained for analyses.
(§3) Next, the effect of ND-13 on mRNA expression of inflammatory and fibrotic markers in the kidneys of mice with UUO was tested. Briefly, RNA was extracted from whole renal tissue harvested from ND-13-treated C57Bl/6 and DJ-1 knockout mice 14 days after the UUO procedure. RNA extracted from untreated C57Bl/6 mice served as the control. The extracted RNA was subjected to qRT-PCR using standard methods. The mRNA expression of TNF-alpha (tumor necrosis factor alpha), IL-6 (Interleukin 6), Col1a1 (collagen, type I, alpha 1) and TGF-beta (transforming growth factor beta) were quantified by qRT-PCR in mice from each group. Data were normalized by expression of the house keeping gene GAPDH (glyceraldehyde 3-phosphate dehydrogenase). […] The increased renal expressions of TNF alpha and IL-6, and TGF-beta associated with UUO was decreased by ND-13 in both C57Bl/6 mice (FIGS. 3A, 3B, and 3D) and DJ-1 knockout mice (FIGS. 3E, 3F, and […]).

Experiment [5] relates to TNF-alpha, IL-6, Col1a1 and TGF-beta mRNA in kidneys of DJ-1 knockout mice with UUO. Described as above. The note with it: 14 days after UUO, normalized by GAPDH.
Excerpt: as §2, §3

Data on one sequence can be found in patent US20220251153A1, “PEPTIDES FOR THE TREATMENT OF RENAL DISORDERS” (THE GEORGE WASHINGTON UNIVERSITY, priority 2019, published 2022).

On to YGRKKRRKGAEEMETVIPVD [ND-13], for which, in experiment [1], the “renal interstitial fibrosis (collagen, Sirius Red staining)” value is “prevented fibrosis”. Further, the “urinary NGAL (marker of renal damage)” value in experiment [2] is recorded as “decreased urinary NGAL to control levels”. In addition, the “urinary NGAL (marker of renal damage)” value in experiment [3] was “not protected”. In experiment [4], the “renal mRNA expression of Col1a1” value was “decreased”, the “renal mRNA expression of IL-6” value is reported as “decreased”, the “renal mRNA expression of TGF-beta” value is reported as “decreased” and the “renal mRNA expression of TNF-alpha” value is listed as “decreased”. Further, in experiment [5], the “renal mRNA expression of Col1a1” value is “not DJ-1 knockout mice”, the “renal mRNA expression of IL-6” value is recorded as “decreased”, the “renal mRNA expression of TGF-beta” value was “decreased” and the “renal mRNA expression of TNF-alpha” value is listed as “decreased”.
